Test results from patent US20240105277A1, “DRUG DISCOVERY VIA REI[…] WITH THREE-D[…]” (priority 2022, published 2024).
Several values for one entry are separate records, joined by “and”; a condition that tells them apart may be missing. Equal values may be shown once. Read-outs that look alike come from different tables or passages of the source.

Assays:
Vero E6 (CRL-1586) cells = test: Cytotoxicity and cytopathic effect assay; format: cell-based; conditions: concentrations up to 10 μM, with or without PZ
Procedure: The in vitro antiviral activity of all four hits was evaluated in Vero E6 (CRL-1586) cells. The antiviral properties of the inhibitors were assessed in the absence and presence of an efflux pump inhibitor (CP-100356, labeled PZ). […] Because of high cytotoxic effects of these compounds at high doses, the high doses were removed in the EC50 curve fit for these compounds.
Briefly, on the day of infection, 5×10^3 Vero E6 cells were seeded in 20 μL cell culture medium (containing 5% FBS) in 384-well plates, using a MultiFlo FX multi-mode microplate dispenser (BioTek). The same day, compounds were added to the cells (25 μL/well, in EMEM with 5% FBS, 1% P/S), with 2 wells per concentration. After 2 h of compound preincubation, 5 μL of virus was added to the wells using a multi-channel pipette to MOI=0.1. Viruses were diluted in EMEM with 5% FBS, 1% P/S and was kept on ice until cells were ready for infection. Eight virus-only control wells were included as the […]. The virus plus cells and the cells were used to normalize the data set. After 72 h, 30 μL of CellTiter-Glo (Promega) was dispensed into each well by a MultiFlo FX multi-mode microplate dispenser. After a 10 min incubation at room temperature, the plates were loaded into a Perkin EnVision multi-mode microplate reader to read luminescence.

SARS-CoV-2 M^pro [1] = target: T1, SARS-CoV-2 M^pro (Severe acute respiratory syndrome coronavirus 2, UniProt P0DTD1); conditions: for fold decrease in IC50, initial vs final inhibition value: t=2 minutes vs 2-hour preincubation
Procedure: To validate the computational leads, the remaining compounds were subjected to a primary SARS-CoV-2 M^pro activity inhibition screen in which they were pre-incubated with the enzyme and the initial velocities of cleavage of a FRET peptide were determined. The Z′-factor of the assay was 0.65, and the distribution of z-scores of compounds and positive (no inhibitor) and negative (no enzyme) controls is shown in FIG. 20.
For each compound, IC50 curves were generated using a continuous fluorescence assay. Reaction volumes of 40 μL were used in Corning half area 96-well plates. […] All the reactions were done in triplicate. For IC50 determination, the initial rate data was used, and the kinetic values were obtained directly from nonlinear regression of substrate-velocity curves in the presence of various concentrations of the inhibitor. The equation Y=(Top-Bottom)/(1+1{circumflex over (0)}(X-log IC50))+Bottom; X=log(concentration) and Y=binding; was used in the nonlinear regression.
(§1) Similar fluorescence assay was used to determine the time dependent IC50 curves. The plate with 10 μL of enzyme (1 μM) and 10 μL of the appropriate inhibitor dilution in 20 mM Tris-HCl, pH 7.35 with 1.25% DMSO was incubated at room temperature on a titer plate shaker with varying enzyme pre-incubation times (2, 15, 30, 45, 60 and 120 min) and centrifuged briefly at 1000 g just before incubation time ends. […] The equation Y=(Top-Bottom)/(1+1{circumflex over (0)}(X-log IC50))+Bottom; X=log(concentration) and Y=binding; was used in the nonlinear regression.

SARS-CoV-2 M^pro [2] = target: T1, SARS-CoV-2 M^pro; conditions: for Ki / kinact (10^−3 s^−1): saturation profile, with SEM
Procedure: as §1

[3] = read-out: IC50 (μM) - 2 min, 2 min co-incubation of enzyme and inhibitor, with standard deviation
[4] = read-out: IC50 (μM) - 120 min, 120 min pre-incubation, with standard deviation

`O=C(CCl)N1CCN(Cc2cccc3ccccc23)CC1` [Compound A] was tested, and the cytotoxic effect (Vero E6 (CRL-1586) cells) was “less than other compounds”, the IC50 (SARS-CoV-2 M^pro [1]; [3]) was 16.3 ± 1.3 µM and the IC50 (SARS-CoV-2 M^pro [1]; [4]) was 0.3 ± 0.03 µM. The “fold decrease in IC50, initial vs final inhibition value” (SARS-CoV-2 M^pro [1]) was 54 fold, the “kinact/KI” value (SARS-CoV-2 M^pro [2]; inactivation efficiency) was 441 ± 297 M⁻¹ s⁻¹ and the Ki (SARS-CoV-2 M^pro [2]) was 11.5 µM. The “kinact (10^−3 s^−1)” value (SARS-CoV-2 M^pro [2]) was 5.1 ± 0.5 10^−3 s^−1.

In the case of `O=C(CCl)N1CCN(Cc2cccc(Cl)c2)CC1` [Compound B], the IC50 (SARS-CoV-2 M^pro [1]; [3]) is reported as 12.8 ± 5.1 µM, the IC50 (SARS-CoV-2 M^pro [1]; [4]) is reported as 0.4 ± 0.13 µM and the “fold decrease in IC50, initial vs final inhibition value” (SARS-CoV-2 M^pro [1]) is reported as 32 fold. The “kinact/KI” value (SARS-CoV-2 M^pro [2]; inactivation efficiency) was 697 ± 697 M⁻¹ s⁻¹, the Ki (SARS-CoV-2 M^pro [2]) was 5.97 µM and 6 µM and the “kinact (10^−3 s^−1)” value (SARS-CoV-2 M^pro [2]) was 4.2 ± 0.8 10^−3 s^−1.

With `COc1ccc(C2CC(c3ccccc3)=NN2C(=O)CCl)cc1OC` (centres unmarked) [Compound C] the “IC50 fold lower than the IC50s of the other compounds” value (SARS-CoV-2 M^pro [1]; preliminary analysis, 2 min) was “at least 5 fold”, the IC50 (SARS-CoV-2 M^pro [1]; [3]) was 2.39 µM and 2.4 µM and the IC50 (SARS-CoV-2 M^pro [1]; read-out: IC50 after a 2-hour preincubation, 2-hour preincubation) was 0.16 µM. For the same compound, the “fold decrease in IC50, initial vs final inhibition value” (SARS-CoV-2 M^pro [1]) was 15 fold, the “kinact/KI fold higher relative to the other compounds” value (SARS-CoV-2 M^pro [2]) was “at least 4 fold” and the “kinact/KI (M^−1 s^−1)” value (SARS-CoV-2 M^pro [2]; inactivation efficiency) was 4,460 M^−1 s^−1. The Ki (SARS-CoV-2 M^pro [2]) was 5.27 µM and 5.3 µM and the “kinact (10^−3 s^−1)” value (SARS-CoV-2 M^pro [2]) was 23.5 ± 2.6 10^−3 s^−1.

For `CC(C)CC1CN(C(=O)CCl)CCN1Cc1cccc(Cl)c1` (centres unmarked) [D], the IC50 (SARS-CoV-2 M^pro [1]; [3]) was 16 ± 0.9 µM, the IC50 (SARS-CoV-2 M^pro [1]; [4]) was 0.41 ± 0.06 µM and the “fold decrease in IC50, initial vs final inhibition value” (SARS-CoV-2 M^pro [1]) was 39 fold. The Ki (SARS-CoV-2 M^pro [2]) was no less than 62.5 µM and the “kinact (10^−3 s^−1)” value (SARS-CoV-2 M^pro [2]) was ≥16.6 10^−3 s^−1.
